The values below come from US10925876B2, “Methods for using triazolo-pyrazinyl soluble guanylate cyclase activators in fibrotic disorders” (Merck Sharp & Dohme Corp., priority 2016, dated 2021).

The target in one test is T1, sGC α1/β1 heterodimer (Homo sapiens, UniProt Q02108+Q02153).
T1 construct: expressed in transfected cells
T1 sequence (Q02108 1-690): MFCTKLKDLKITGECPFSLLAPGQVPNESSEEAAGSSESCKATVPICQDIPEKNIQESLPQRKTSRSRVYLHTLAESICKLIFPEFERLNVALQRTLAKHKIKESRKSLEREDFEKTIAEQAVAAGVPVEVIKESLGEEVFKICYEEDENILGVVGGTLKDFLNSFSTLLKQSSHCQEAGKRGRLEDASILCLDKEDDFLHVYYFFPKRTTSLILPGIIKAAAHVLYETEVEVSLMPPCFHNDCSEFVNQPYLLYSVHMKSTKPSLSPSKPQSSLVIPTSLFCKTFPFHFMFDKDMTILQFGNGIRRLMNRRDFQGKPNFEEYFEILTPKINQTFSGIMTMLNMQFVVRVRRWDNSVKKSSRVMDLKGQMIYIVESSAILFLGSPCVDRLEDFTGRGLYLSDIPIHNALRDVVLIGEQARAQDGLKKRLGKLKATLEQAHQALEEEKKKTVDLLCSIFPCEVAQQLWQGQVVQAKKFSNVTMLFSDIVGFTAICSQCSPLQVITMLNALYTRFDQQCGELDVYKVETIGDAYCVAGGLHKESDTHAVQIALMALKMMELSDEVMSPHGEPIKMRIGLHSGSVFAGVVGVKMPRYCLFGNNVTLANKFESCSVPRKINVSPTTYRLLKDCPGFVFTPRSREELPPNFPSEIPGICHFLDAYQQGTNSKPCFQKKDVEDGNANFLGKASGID
T1 sequence (Q02153 1-619): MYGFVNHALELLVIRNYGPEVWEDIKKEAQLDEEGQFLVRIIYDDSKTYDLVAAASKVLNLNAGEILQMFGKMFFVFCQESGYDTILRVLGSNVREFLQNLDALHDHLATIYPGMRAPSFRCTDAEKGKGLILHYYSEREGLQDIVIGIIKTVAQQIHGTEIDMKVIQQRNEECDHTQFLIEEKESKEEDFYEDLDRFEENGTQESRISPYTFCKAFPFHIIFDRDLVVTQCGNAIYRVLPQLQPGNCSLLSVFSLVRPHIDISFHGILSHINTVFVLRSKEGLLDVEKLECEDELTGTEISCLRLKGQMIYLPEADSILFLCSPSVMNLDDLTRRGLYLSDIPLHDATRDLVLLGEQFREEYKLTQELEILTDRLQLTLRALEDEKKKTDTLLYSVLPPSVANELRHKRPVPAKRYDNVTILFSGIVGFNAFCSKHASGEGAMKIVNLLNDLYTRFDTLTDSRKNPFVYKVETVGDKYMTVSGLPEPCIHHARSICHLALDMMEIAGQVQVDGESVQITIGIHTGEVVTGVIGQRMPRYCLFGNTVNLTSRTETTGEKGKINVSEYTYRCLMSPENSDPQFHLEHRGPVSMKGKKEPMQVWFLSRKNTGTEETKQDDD
In words: Cell-Based sGC Functional Assay (CASA Assay), cGMP generation in CHO-K1/sGC cells.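 Also: reference Compound A is a published heme-dependent sGC activator.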 The note with it: maximum cGMP production of Compound A set to 100% activation, read-out: % Act. (percent activation relative to Compound A). The procedure, abridged: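 Intracellular cGMP quantified by HTRF competition after 1 h, 37 °C compound exposure, with or without 1 μM DETA-NO, in stable CHO-K1/sGC α1/β1 cells (4×10^5/mL; buffer with 0.5 mM IBMX, 5 mM MgCl2, 10 mM HEPES, 0.05% BSA; 2.5% DMSO). Activation normalized to reference Compound A maximum; 4P fit.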

Test [1] relates to Spontaneously hypertensive rats (SHR). Put plainly: Acute Efficacy in Spontaneously Hypertensive Rats (SHR), telemetry blood pressure. The class given is in vivo, rat. The note with it: single oral gavage. The source says:
Spontaneously hypertensive rats (SHR, male, Charles River) were implanted with DSI TA11PA-C40 telemetry device (Data Sciences, Inc., St. Paul, Minn.) under isoflurane or ketamine/metomidine anesthesia. The telemetry unit catheter was inserted into the descending aorta via the femoral artery and the telemetry device was implanted subcutaneously in the left flank area. Animals were allowed to recover from surgery for 14 days before the start of any studies. Blood pressure, heart rate, and activity signals from conscious, freely moving rats were recorded continuously for 30 seconds every 10 minutes. On the day prior to administration of compound, a single oral dose of vehicle (10% transcutol/20% Cremophor/70% water) was administered to all animals to establish baseline control data. The blood pressure lowering efficacy of compound (PO) or vehicle was evaluated following a single oral gavage. Data were collected as hourly averages, and changes in blood pressure were calculated by subtracting control baseline data on an hourly basis. Animals were maintained on normal diet with a 12 hour light-dark cycle.
Maximum peak decreases of systolic blood pressure (SBP) in SHR at a particular P.O. dose (mpk milligrams per kilogram) for the following representative compounds are provided. Category A=SBP in SHRs <20 mmHg; Category B=SBP in SHRs 20-40 mmHg; Category C=SBP in SHRs >40 mmHg.

Regarding `Cc1ccc(C2(C3CC3)C(=O)Nc3nc(-c4cn5ncnc5c(CCC(F)(F)C(F)(F)F)n4)nc(N)c32)nc1` (racemic) [Example 17B, 4-amino-5-cyclopropyl-5-(5-methylpyridin-2-yl)-2-(8-(3,3,4,4,4-pentafluorobutyl)-[1,2,4]triazolo[1,5-a]pyrazin-6-yl)-5H-pyrrolo[2,3-d]pyrimidin-6(7H)-one], the Emax at sGC α1/β1 heterodimer worked out at 119%. In test [1] (P.O. 0.3 mpk), the “Maximum peak decrease of systolic blood pressure (SBP) in SHR, Cat.” value (“Maximum peak decrease” for short) is “A (Category A=SBP in SHRs <20 mmHg)”.
As for `Nc1nc(-c2cn3ncnc3c(CCCC(F)(F)F)n2)nc2c1C(c1ccc(C(F)F)cn1)(C1CC1)C(=O)N2` (racemic) [Example 44B, 4-amino-5-cyclopropyl-5-(5-(difluoromethyl)pyridin-2-yl)-2-(8-(4,4,4-trifluorobutyl)-[1,2,4]triazolo[1,5-a]pyrazin-6-yl)-5H-pyrrolo[2,3-d]pyrimidin-6(7H)-one], the Emax at sGC α1/β1 heterodimer was 120%. The “Maximum peak decrease” value in test [1] (P.O. 1 mpk) was “B (Category B=SBP in SHRs 20-40 mmHg)”.
As for `Nc1nc(-c2cn3ncnc3c(CCCC(F)(F)F)n2)nc2c1C(c1ccc(C(F)(F)F)cn1)(C1CC1)C(=O)N2` (single isomer, unassigned) [Example 2A, 4-Amino-5-cyclopropyl-2-(8-(4,4,4-trifluorobutyl)-[1,2,4]triazolo[1,5-a]pyrazin-6-yl)-5-(5-(trifluoromethyl)pyridin-2-yl)-5H-pyrrolo[2,3-d]pyrimidin-6(7H)-one], the Emax at sGC α1/β1 heterodimer is 111%. Further, the “Maximum peak decrease” value in test [1] (P.O. 0.3 mpk) was “A (Category A=SBP in SHRs <20 mmHg)”.
The corresponding values for `C[C@@]1(c2ccc(F)cc2)C(=O)Nc2nc(-c3cn4ncnc4c(CCC(F)(F)C(F)(F)F)n3)nc(N)c21` [Example 1A, (S)-4-Amino-5-(4-fluorophenyl)-5-methyl-2-(8-(3,3,4,4,4-pentafluorobutyl)-[1,2,4]triazolo[1,5-a]pyrazin-6-yl)-5H-pyrrolo[2,3-d]pyrimidin-6(7H)-one] are 196% and “C (Category C=SBP in SHRs >40 mmHg)”.
In the same order, the values of `CC1(c2ccc(Cl)cn2)C(=O)Nc2nc(-c3cn4ncnc4c(CCC(F)(F)C(F)(F)F)n3)nc(N)c21` (stereo not shown) [Example 3A, 4-amino-5-(5-chloropyridin-2-yl)-5-methyl-2-(8-(3,3,4,4,4-pentafluorobutyl)-[1,2,4]triazolo[1,5-a]pyrazin-6-yl)-5H-pyrrolo[2,3-d]pyrimidin-6(7H)-one] are 161% and “B (Category B=SBP in SHRs 20-40 mmHg)”.
`CC1(c2ccc(F)cn2)C(=O)Nc2nc(-c3cn4ncnc4c(CCC(F)(F)C(F)(F)F)n3)nc(N)c21` (stereo not shown) [Example 4B, 4-amino-5-(5-fluoropyridin-2-yl)-5-methyl-2-(8-(3,3,4,4,4-pentafluorobutyl)-[1,2,4]triazolo[1,5-a]pyrazin-6-yl)-5H-pyrrolo[2,3-d]pyrimidin-6(7H)-one]: the Emax at sGC α1/β1 heterodimer came out at 157%. Moreover, the “Maximum peak decrease” value in test [1] (P.O. 0.3 mpk) was “C (Category C=SBP in SHRs >40 mmHg)”.
In the same order, the values of `Nc1nc(-c2cn3ncnc3c(CCC(F)(F)C(F)(F)F)n2)nc2c1C(c1ccc(Cl)cn1)(C1CC1)C(=O)N2` (stereo not shown) [Example 7A, 4-amino-5-(5-chloropyridin-2-yl)-5-cyclopropyl-2-(8-(3,3,4,4,4-pentafluorobutyl)-[1,2,4]triazolo[1,5-a]pyrazin-6-yl)-5H-pyrrolo[2,3-d]pyrimidin-6(7H)-one] are 185% and “B (Category B=SBP in SHRs 20-40 mmHg)”.
In the case of `Nc1nc(-c2cn3ncnc3c(CCC(F)(F)C(F)(F)F)n2)nc2c1C(c1cncc(F)c1)(C1CC1)C(=O)N2` (stereo not shown) [Example 8B, 4-amino-5-cyclopropyl-5-(5-fluoropyridin-3-yl)-2-(8-(3,3,4,4,4-pentafluorobutyl)-[1,2,4]triazolo[1,5-a]pyrazin-6-yl)-5H-pyrrolo[2,3-d]pyrimidin-6(7H)-one], the Emax on sGC α1/β1 heterodimer is 177%. Also, the “Maximum peak decrease” value in test [1] (P.O. 3 mpk) was “B (Category B=SBP in SHRs 20-40 mmHg)”.
Regarding `CC1(c2cncc(F)c2)C(=O)Nc2nc(-c3cn4ncnc4c(CCC(F)(F)C(F)(F)F)n3)nc(N)c21` (stereo not shown) [Example 9A, 4-amino-5-(5-fluoropyridin-3-yl)-5-methyl-2-(8-(3,3,4,4,4-pentafluorobutyl)-[1,2,4]triazolo[1,5-a]pyrazin-6-yl)-5H-pyrrolo[2,3-d]pyrimidin-6(7H)-one], the Emax at sGC α1/β1 heterodimer worked out at 119%. The “Maximum peak decrease” value in test [1] (P.O. 1 mpk) is listed as “B (Category B=SBP in SHRs 20-40 mmHg)”.
Regarding `CC1(c2ccccn2)C(=O)Nc2nc(-c3cn4ncnc4c(CCC(F)(F)C(F)(F)F)n3)nc(N)c21` (stereo not shown) [Example 11B, 4-amino-5-methyl-2-(8-(3,3,4,4,4-pentafluorobutyl)-[1,2,4]triazolo[1,5-a]pyrazin-6-yl)-5-(pyridin-2-yl)-5H-pyrrolo[2,3-d]pyrimidin-6(7H)-one], on sGC α1/β1 heterodimer, the Emax came to 208%. Also, the “Maximum peak decrease” value in test [1] (P.O. 0.3 mpk) was “B (Category B=SBP in SHRs 20-40 mmHg)”.
For `CC1(c2ccccc2)C(=O)Nc2nc(-c3cn4ncnc4c(CCC(F)(F)C(F)(F)F)n3)nc(N)c21` (stereo not shown) [Example 12B, 4-amino-5-methyl-2-(8-(3,3,4,4,4-pentafluorobutyl)-[1,2,4]triazolo[1,5-a]pyrazin-6-yl)-5-phenyl-5H-pyrrolo[2,3-d]pyrimidin-6(7H)-one], the Emax on sGC α1/β1 heterodimer was 122%. Besides, the “Maximum peak decrease” value in test [1] (P.O. 0.1 mpk) is recorded as “B (Category B=SBP in SHRs 20-40 mmHg)”.
With `CC1(c2ccc(C3CC3)nc2)C(=O)Nc2nc(-c3cn4ncnc4c(CCC(F)(F)C(F)(F)F)n3)nc(N)c21` (stereo not shown) [Example 13B, 4-amino-5-(6-cyclopropylpyridin-3-yl)-5-methyl-2-(8-(3,3,4,4,4-pentafluorobutyl)-[1,2,4]triazolo[1,5-a]pyrazin-6-yl)-5H-pyrrolo[2,3-d]pyrimidin-6(7H)-one], at sGC α1/β1 heterodimer, the Emax was 109%. Moreover, in test [1] (P.O. 1 mpk), the “Maximum peak decrease” value is “B (Category B=SBP in SHRs 20-40 mmHg)”.
Consider `CC1(c2ccc(C#N)cn2)C(=O)Nc2nc(-c3cn4ncnc4c(CCC(F)(F)C(F)(F)F)n3)nc(N)c21` (stereo not shown) [Example 18A], for which, on sGC α1/β1 heterodimer, the Emax came out at 75%. The “Maximum peak decrease” value in test [1] (P.O. 0.3 mpk) was “C (Category C=SBP in SHRs >40 mmHg)”.
For `CC(C)n1cc(C2(C)C(=O)Nc3nc(-c4cn5ncnc5c(CCC(F)(F)C(F)(F)F)n4)nc(N)c32)nn1` (stereo not shown) [Example 20A, 4-amino-5-(1-isopropyl-1H-1,2,3-triazol-4-yl)-5-methyl-2-(8-(3,3,4,4,4-pentafluorobutyl)-[1,2,4]triazolo[1,5-a]pyrazin-6-yl)-5H-pyrrolo[2,3-d]pyrimidin-6(7H)-one], the Emax on sGC α1/β1 heterodimer worked out at 131%. In addition, the “Maximum peak decrease” value in test [1] (P.O. 1 mpk) is given as “C (Category C=SBP in SHRs >40 mmHg)”.
